From patent US9957566B2, “Screening method” (THE UNIVERSITY OF BIRMINGHAM, priority 2009, dated 2018)

What was measured:
peripheral lymphocytes [1] = assay: Lymphocyte culture with or without rapamycin, flow cytometry cell cycle analysis (TG1); assay type: cell-based, human; settings: 100 ng/ml rapamycin, 24 hours
Procedure: (§1) Peripheral lymphocytes (thawed from storage as appropriate) were cultured in a growth medium of RPMI 1640 supplemented with 15% FCS (heat inactivated), plus 2% I-glutamine and 1% penicillin/streptamycin, in the presence of 2.5% phytohaemagglutinin (PHA) for 48 hours at 37° C., 5% CO2, to reach exponential growth. Cultures were prepared in a 96 well plate format, with 6 or 8 wells allocated to each patient (test subject). One single plate could therefore hold eleven sets of patient samples, plus one set of standard samples.
(§2) Once exponential growth of the cells was achieved, the lymphocyte cultures were treated with either growth medium (as above) alone, or the same growth medium plus 100 ng/ml rapamycin, in triplicate/quadruplicate for each patient.
(§3) Cell cultures were harvested after 24 hours. Samples intended for cytotoxicity testing (LDH assay) were frozen at −20° C., whereas samples intended for analysis by flow cytometry were fixed in 85% cold ethanol.
96-well plate lymphocytes cultures (with or without rapamycin) fixed in ethanol (end of step 3) were spun at 400 g for 10 minutes at RT with no breaks. Supernatants were removed and the cell pellets resuspended in 0.300 ml ice-cold PBS/well. The plates were spun again at 400 g for 10 minutes at RT with no breaks. Supernatants were again removed and the cell pellets re-suspended in 0.080 ml of propidium iodide (P1) staining solution/well.
The flow cytometer (FacsCalibur BD) was set up to distinguish well between the G1 and G2 peaks (at least 200 units apart).
Using as a Marker measure the PI reading equivalent to the G1 peak and the G2 peak the parameter X was calculated based on the relation: X=(G2peak−G1peak)/4
(§4) The LDH cytotoxicity assay gave a value for total cell numbers in each lymphocyte culture (with or without rapamycin). […]
[formula] fG1 is the proportion of cells in the G1 phase of the cell cycle as measured by flow cytometry.
Finally, TG1 values calculated for rapamycin treated and untreated lymphocyte cultures from the same test subject were compared.

peripheral lymphocytes [2] = assay: Lymphocyte culture with or without rapamycin, LDH cytotoxicity assay for number of cell divisions; assay type: cell-based, human; settings: 100 ng/ml rapamycin, 24 hours
Procedure: as §1, §2, §3
Measurement of cell numbers in the cell cultures prepared in 3) was carried out by LDH cytotoxicity assay using the CytoTox 96® Non-Radioactive Cytotoxicity Assay Kit from Promega, according to the instructions supplied by the manufacturer.
The assays were set up in 96-well plate format, using 30 μl of lymphocyte culture and 50 μl of LDH substrate mix per well (substrate mix is a component of the CytoTox kit, diluted prior to use). Patient samples cultured with or without rapamycin were each tested in triplicate. The assay plates also included diluted standards of LDH positive control (serial dilutions of LDH positive control in lymphocyte culture medium; triplicate samples of 30 μl at each of 1:2500, 1:5000, 1:10,000, 1:20,000, 1:40,000, 1:80,000 and 1:160,000 dilution), to allow construction of a calibration curve.
The reactions were then stopped by adding 50 μl of cold Stop Solution (component of the CytoTox kit) to each well. Optical density was then read at 490 nm.
as §4

[3] = subjects with 0 ApoE4 alleles (n=54)
[4] = subjects with 1 ApoE4 allele (n=38)
[5] = subjects with 2 ApoE4 alleles (n=8)

`CO[C@H]1C[C@@H]2CC[C@@H](C)[C@@](O)(O2)C(=O)C(=O)N2CCCC[C@H]2C(=O)O[C@H]([C@H](C)C[C@@H]2CC[C@@H](O)[C@H](OC)C2)CC(=O)[C@H](C)/C=C(\C)[C@@H](O)[C@@H](OC)C(=O)[C@H](C)C[C@H](C)/C=C/C=C/C=C/1C` [Rapamycin, rapamycin] was tested. Which “TG1 Rapa = length of the G1 time under the effect of Rapamycin (mean)” value (“TG1 Rapa = length of the G1 time” for short) (peripheral lymphocytes [1]; [3]) did it give?
Its value is 13.9944.

What about the “TG1 Rapa = length of the G1 time” value (peripheral lymphocytes [1]; [4]) of the same molecule?
The value was 13.7038.

What about the “TG1 Rapa = length of the G1 time” value (peripheral lymphocytes [1]; [5]) of the same molecule?
The value was 13.1059.

What about the “n rapa/n = change in the number of cell divisions under the effect of Rapamycin relative to control cultures from the same individual (mean)” value (peripheral lymphocytes [2]; [3]) of the same molecule?
The value was 1.3044.

And the “n rapa/n = change in the number of cell divisions under the effect of Rapamycin relative to control cultures from the same individual (mean)” value (peripheral lymphocytes [2]; [4])?
The value was 1.3775.

And the “n rapa/n = change in the number of cell divisions under the effect of Rapamycin relative to control cultures from the same individual (mean)” value (peripheral lymphocytes [2]; [5])?
Its value is 1.4624.
